Consider four compounds from patent US8765750B2, “Piperazine compound having a PGDS inhibitory effect” (Taiho Pharmaceutical Co., Ltd., priority 2010, dated 2014).

By inhibition is commonly meant the relative decrease from the control value, in per cent. What is called IC50 is the midpoint of a concentration-inhibition curve.

One experiment concerns the target human H-PGDS (Homo sapiens (Human), UniProt O60760). Description: Hematopoietic prostaglandin D synthase (H-PGDS) inhibiting action. The conditions noted are these: for inhibition at 0.1 µM: compound at 0.1 μM, relative to the control group, human H-PGDS, [14C] prostaglandin H2 10 μM, read-out: Inhibition Rate (%) 0.1 μM. The class given is biochemical. As to the method: The test was carried out according to the method of Urade, Y. et al. (J. Biol. Chem., 262, 3820-3825, (1987)). More specifically, the reaction mixture (49 μL) containing 100 mM Tris-HCl (pH 8.0), 1 mM reduced glutathione, 0.1 mg/mL γ-globulin, and human H-PGDS (q.s.), and a compound (final concentration: 0.01-100 μM) was preincubated at 25° C. for 5 minutes. A DMSO solution (final concentration: 1%) was added to the solvent control group. Subsequently, 1 μL of [^14C] prostaglandin H2 (final concentration: 10 μM) was added to start the reaction. One minute after the start of the reaction, 250 μL of a reaction stop solution (diethylether/methanol/1 M citric acid (30/4/1) at a temperature of −20° C. was added to stop the reaction. After the reaction was stopped, 50 μL of the upper-layer portion (organic solvent layer) was applied to a TLC plate and developed at −20° C. for 45 minutes (developing solvent: diethylether/methanol/acetic acid (90/2/1)). After drying the TLC plate, the TLC plate was exposed to an imaging plate for 1 to 24 hours, and the radioactivity corresponding to prostaglandin D2 (PGD2) was analyzed using an image analyzer (produced by Fujifilm Corporation). […]

Experiment [1] has as its system PGD2 production in the nasal cavities of guinea pigs with antigen-induced rhinitis. Nature of the experiment: PGD2 production inhibiting action in the nasal cavities of guinea pigs with antigen-induced rhinitis. The class given is in vivo. The conditions noted are these: 30 mg/kg orally 1 hour before induction of rhinitis reaction; washing 30 minutes after induction; * = significance level below 0.05 vs control group. Here is the method: A physiological saline solution containing 1 mg/mL of ovalbumin was subcutaneously injected into the back of 5-week-old male Std: Hartley guinea pigs in an amount of 1 mL/body for active sensitization (initial sensitization). One week and two weeks after initial sensitization, 20 μL of a physiological saline solution containing 10 mg/mL of ovalbumin was instilled into each nasal cavity using a micropipette (sensitization by nasal administration). Three weeks after initial sensitization, 20 μL of a physiological saline solution containing 10 mg/mL of ovalbumin was instilled into each nasal cavity using a micropipette to induce a rhinitis reaction.
30 minutes after the induction of a rhinitis reaction, the nasal cavities were washed under pentobarbital sodium anesthesia. A nasal cavity washing liquid (phosphate buffered saline containing 3 mM of EDTA and 10 μM of indomethacin) was flushed using a Peristaltic Pump (Gilson, Inc.) in the direction from the trachea to the upper respiratory tract at a flow rate of 1 mL/min, and the liquid flowing out from the nasal cavities was collected for 1 minute. The collected liquid was centrifuged to separate the supernatant as the nasal cavity washing fluid. The concentration of PGD2 in the nasal cavity washing fluid was determined using an EIA kit (Prostaglandin D2-MOX EIA kit, Cayman Chemical).
The test compound (30 mg/kg) was orally administered 1 hour before induction of a rhinitis reaction. A formula to calculate the rate of decrease in PGD2 in the nasal cavity washing fluid is shown below. Rate (%) of decrease in PGD2 in the nasal cavity washing fluid={(PGD2 concentration in the control group−PGD2 concentration in the compound-administered group)÷(PGD2 concentration in the control group−PGD2 concentration in the normal group)}×100
8 or more cases were obtained from each group to determine whether expression of the PGD2 production inhibiting action occurred, and the PGD2 concentration in the nasal cavity washing fluid was compared between the control group and each compound-administered group. […] When the significance level was below 0.05, the action was considered to be present and indicated by a symbol (*) in the table. Reference Example 18, known as an H-PGDS inhibitor, was used as a positive control substance.

Each structure is given as a SMILES string.

human H-PGDS, sequence (O60760 whole entry): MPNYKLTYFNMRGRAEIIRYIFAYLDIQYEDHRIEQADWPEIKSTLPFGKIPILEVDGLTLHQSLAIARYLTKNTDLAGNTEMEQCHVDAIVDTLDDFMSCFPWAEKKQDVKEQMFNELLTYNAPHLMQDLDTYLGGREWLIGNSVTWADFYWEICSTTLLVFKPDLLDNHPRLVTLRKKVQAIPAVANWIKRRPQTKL

For the compound `Cc1ccc2nc(NC(=O)N3CCN(C(=O)c4cccc(F)c4)CC3)sc2c1` [Reference Example 14, 4-(3-fluorobenzoyl)-piperazine-1-carboxylic acid-(6-methylbenzothiazol-2-yl)-amide, reference compound], the inhibition at 0.1 µM on human H-PGDS was determined as 27.9%. Also, the “Rate (%) of decrease in PGD2 in the nasal cavity washing fluid” value (“Rate (%) of decrease in PGD2” below) in experiment [1] amounted to 26.6%.
As to `COc1ccc2nc(NC(=O)N3CCN(C(=O)c4cccc(F)c4)CC3)sc2c1` [Reference Example 15, 4-(3-fluorobenzoyl)-piperazine-1-carboxylic acid-(6-methoxybenzothiazol-2-yl)-amide, reference compound], the inhibition at 0.1 µM on human H-PGDS amounted to 20.9%. For the same compound, in experiment [1], the “Rate (%) of decrease in PGD2” value is recorded as −27.4%.
In the same order, the values of `O=C(Nc1nc2ccc(Cl)cc2s1)N1CCN(C(=O)c2cccc(F)c2)CC1` [Reference Example 16, 4-(3-fluorobenzoyl)-piperazine-1-carboxylic acid-(6-chlorobenzothiazol-2-yl)-amide, reference compound] are 33.8% and −38.1%.
Consider `O=C(Nc1ccc(C(F)(F)F)cc1)N1CCN(C(=O)c2cccc(F)n2)CC1` [Reference Example 17, 4-(6-fluoropyridine-2-carbonyl)-piperazine-1-carboxylic acid-(4-trifluoromethylphenyl)-amide, reference compound], for which, at human H-PGDS, it took 5.82 µM to reach half-maximal inhibition (IC50) and the inhibition at 0.1 µM was found to be 1.8%. In addition, in experiment [1], the “Rate (%) of decrease in PGD2” value is 31.0%.
